# Values joined by “and” are separate entries in the source; they are usually repeats but may differ in a detail not shown here. Equal values may be shown once. “Also recorded” adds a separate entry of the source. Where a name gives a salt, the structure may show the parent alone. Read-outs that look alike come from different tables or passages of the source. Marks after values point to notes of the source that are not given here.
# Columns and labels:
# [1] = Aqueous solubility of laquinimod and its salts; assay type: physicochemical; conditions: for Aqueous solubility: water
# [2] = Physical stability in glass vials at +5° C., air atmosphere; assay type: physicochemical; conditions: for Sample appearance: glass vials, air atmosphere
# [3] = Physical stability on exposure to atmospheric air at room temperature; assay type: physicochemical
# [4] = cited from earlier work
# [5] = cited from earlier work; remark: listed apart in the source
# [6] = cited from earlier work; for intrinsic solubility: free laquinimod in water
# [7] = sealed transparent glass vials at +5° C. for 3 months
# [8] = RH=25-30%, T=18-20° C., 4 hours
# [9] = +5° C., after 9 months of storage
# [10] = sealed transparent glass vials at +5° C. for 6 months
# [11] = +5° C., after 10 months of storage
# [12] = +5° C., after 7 months of storage
structure (smiles),measurement,setting,value
CCN(C(=O)c1c(O)c2c(Cl)cccc2n(C)c1=O)c1ccccc1 [laquinimod choline hydroxide],solubility relative to the sodium salt,[1]; laquinimod choline hydroxide salt vs laquinimod sodium,over 14 times
same,Aqueous solubility,"[1]; depends on preparation method and form, listed as choline hydroxide salt of laquinimod",2000 mg/mL and 2100 mg/mL
"CCN(C(=O)c1c(O)c2c(Cl)cccc2n(C)c1=O)c1ccccc1 [Batch 12, laquinimod monoethanolamine]",Sample appearance,"[2]; +5° C., 3 months",yellowish aggregated powder
same,Physical stability (overall),"[2]; refrigerator, atmospheric air, overall statement",less stable
same,Physical stability (physical change),[2]; [7],Physical change was observed
same,Physical stability,[3]; [8],no change
same,Physical stability,"[3]; RH=25-30%, T=18-20° C., 24 hours",yellowish aggregated powder
"CCN(C(=O)c1c(O)c2c(Cl)cccc2n(C)c1=O)c1ccccc1 [Batch 8, laquinimod choline hydroxide]",Physical stability (physical change),[2]; [9],no sign of physical change
same,Sample appearance,"[2]; +5° C., 5 months",White powder
same,Sample appearance,"[2]; +5° C., 6 months",white powder with no signs of deliquescence
same,Sample appearance,"[2]; +5° C., 9 months",White powder
same,Sample appearance,"[2]; +5° C., time 0 month",White powder
same,Physical stability (physical change),[2]; [10],No physical change was observed
same,Aqueous solubility,[1],2000 mg/ml H2O
same,Aqueous solubility,"[1]; depends on preparation method and form, listed as 2.4",>2000** mg/ml
"CCN(C(=O)c1c(O)c2c(Cl)cccc2n(C)c1=O)c1ccccc1 [Batch 15, laquinimod monoethanolamine]",Sample appearance,"[2]; +5° C., 3 months",off-white powder
same,Sample appearance,"[2]; +5° C., time 0 month",White powder
same,Physical stability (physical change),[2]; [7],Small physical change was observed; also recorded: color change was developed
same,Physical stability,"[3]; RH=29-32%, T=18-20° C., 4 hrs",no change; remained white powder
same,Physical stability,"[3]; RH=29-32%, T=18-20° C., 25 hrs",no change; remained white powder
same,Aqueous solubility,[1],625 mg/ml H2O
same,Aqueous solubility,"[1]; depends on preparation method and form, listed as 4.4",625 mg/mL
"CCN(C(=O)c1c(O)c2c(Cl)cccc2n(C)c1=O)c1ccccc1 [Batch 6, laquinimod choline hydroxide]",Physical stability (physical change),"[2]; +5° C., after 5 months",developed color and deliquescence occurred
same,Sample appearance,"[2]; +5° C., 6 months",yellowish semi-solid with signs of deliquescence
same,Sample appearance,"[2]; +5° C., time 0 month",White glassy solid
same,Physical stability (physical change),[2]; [10],Physical change was observed
C[N+](C)(C)CCO.[OH-] [Choline hydroxide],pKa,[4],13.9
CC(C)Cc1ccc(C(C)C(=O)[O-])cc1.[Na+] (stereo not shown) [ibuprofen sodium salt],solubility,[5]; pH not given,100 mg/mL
CN1C(C(=O)Nc2ccccn2)=C(O)c2ccccc2S1(=O)=O.NCCO [monoethanolamine salt of piroxicam],solubility,[5]; pH 7.4,126.2 mg/mL
"CCN(C(=O)c1c(O)c2c(Cl)cccc2n(C)c1=O)c1ccccc1 [Batch 4, laquinimod meglumine]",Physical stability (physical change),[2]; [11],no sign of physical change
same,Sample appearance,"[2]; +5° C., 6 months",white powder with no signs of deliquescence
same,Physical stability (physical change),[2]; [10],No physical change was observed
same,Aqueous solubility,[1],1050 mg/ml H2O
same,Aqueous solubility,"[1]; depends on preparation method and form, listed as 1.4",1050 mg/mL
"CCN(C(=O)c1c(O)c2c(Cl)cccc2n(C)c1=O)c1ccccc1 [Batch 13, laquinimod monoethanolamine]",Physical stability (physical change),[2]; [12],slight aggregation was developed
same,Sample appearance,"[2]; +5° C., 3 months",off-white powder
same,Sample appearance,"[2]; +5° C., time 0 month",White powder
same,Aqueous solubility,[1],1176 mg/ml H2O
same,Aqueous solubility,"[1]; depends on preparation method and form, listed as 4.2",1176 mg/mL
"C[N+](C)(C)CCO.O=C([O-])c1ccccc1O [choline salicylate salt, choline salicylate]",solubility (in words),[5],insoluble
CCN(C(=O)c1c(O)c2c(Cl)cccc2n(C)c1=O)c1ccccc1 [laquinimod monoethanolamine],Aqueous solubility,"[1]; depends on preparation method and form, listed as Laquinimod monoethanoloamine salt",625 mg/mL and 1176 mg/mL
"CN1C(C(=O)Nc2ccccn2)=C(O)c2ccccc2S1(=O)=O [free piroxicam, piroxicam]",solubility,"[5]; pH 7.4, unit not given",0.17
"CCN(C(=O)c1c(O)c2c(Cl)cccc2n(C)c1=O)c1ccccc1 [Batch 3, laquinimod meglumine]",Physical stability (physical change),"[2]; +5° C., after 5 months",physical change was observed
same,Sample appearance,"[2]; +5° C., 6 months","lumped white powder, with signs of deliquescence"
same,Physical stability (physical change),[2]; [10],Physical change was observed
CCN(C(=O)c1c(O)c2c(Cl)cccc2n(C)c1=O)c1ccccc1 [laquinimod L-lysine],Aqueous solubility,"[1]; depends on preparation method and form, listed as L-lysine laquinimod salt",1000 mg/mL and 1176 mg/mL
CCN(C(=O)c1c(O)c2c(Cl)cccc2n(C)c1=O)c1ccccc1 [laquinimod meglumine],Aqueous solubility,"[1]; depends on preparation method and form, listed as meglumine laquinimod salt",1050 mg/mL and 1330 mg/mL
"CCN(C(=O)c1c(O)c2c(Cl)cccc2n(C)c1=O)c1ccccc1 [Batch 7, laquinimod choline hydroxide]",Physical stability (physical change),[2]; [9],no sign of physical change
same,Sample appearance,"[2]; +5° C., 5 months",White powder
same,Sample appearance,"[2]; +5° C., 6 months",white powder with no signs of deliquescence
same,Sample appearance,"[2]; +5° C., 9 months",White powder
same,Sample appearance,"[2]; +5° C., time 0 month",White powder
same,Physical stability (physical change),[2]; [10],No physical change was observed
same,Aqueous solubility,[1],> 2100 mg/ml H2O
same,Aqueous solubility,"[1]; depends on preparation method and form, listed as 2.3",>2100** mg/ml
"CCN(C(=O)c1c(O)c2c(Cl)cccc2n(C)c1=O)c1ccccc1 [Batch 14, laquinimod monoethanolamine]",Physical stability (physical change),[2]; [12],no sign of physical change
same,Sample appearance,"[2]; +5° C., 3 months",white powder
same,Physical stability (physical change),[2]; [7],No physical change was observed
same,Physical stability,[3]; [8],no change
same,Physical stability,"[3]; RH=25-30%, T=18-20° C., 16 hours",aggregated white powder
"CCN(C(=O)c1c(O)c2c(Cl)cccc2n(C)c1=O)c1ccccc1 [Batch 9, laquinimod L-lysine]",Physical stability (physical change),[2]; [9],no sign of physical change
same,Sample appearance,"[2]; +5° C., 5 months",White flowable powder
same,Sample appearance,"[2]; +5° C., 6 months",white flowable powder
same,Sample appearance,"[2]; +5° C., 9 months",White flowable powder
same,Sample appearance,"[2]; +5° C., time 0 month",White flowable powder
same,Physical stability (physical change),[2]; [10],No physical change was observed
same,Aqueous solubility,[1],1176 mg/ml H2O
same,Aqueous solubility,"[1]; depends on preparation method and form, listed as 3.1",1176 mg/mL
CNC[C@H](O)[C@@H](O)[C@H](O)[C@H](O)CO.Cc1cnc(NC(=O)C2=C(O)c3ccccc3S(=O)(=O)N2C)s1 [meglumine salt of meloxicam],Aqueous solubility,[5]; pH 8.57,2.3 mg/mL
"CCN(C(=O)c1c(O)c2c(Cl)cccc2n(C)c1=O)c1ccccc1 [Batch 1, laquinimod meglumine]",Physical stability (physical change),[2]; [11],no sign of physical change
same,Sample appearance,"[2]; +5° C., 6 months",White flowable powder
same,Sample appearance,"[2]; +5° C., last row of Table 7.A, time printed 0 month",White flowable powder
same,Sample appearance,"[2]; +5° C., time 0 month",White flowable powder
same,Physical stability (physical change),[2]; [10],No physical change was observed
same,Physical stability,"[3]; RH=38%, open dish, 20 hours",No signs of aggregation or deliquescence were observed
same,Aqueous solubility,[1],1330 mg/ml H2O
same,Aqueous solubility,"[1]; depends on preparation method and form, listed as 1.1",1330 mg/mL
CNCC(O)C(O)C(O)C(O)CO.Oc1cc(Cl)ccc1Oc1ccc(Cl)cc1Cl [Triclosan meglumine salt],solubility,[5]; pH not given,12.43 mg/mL
"Cc1cnc(NC(=O)C2=C(O)c3ccccc3S(=O)(=O)N2C)s1 [free meloxicam, meloxicam]",solubility,[5]; pH 7.4,0.74 mg/mL
Cc1cnc(NC(=O)C2=C(O)c3ccccc3S(=O)(=O)N2C)s1 [meloxicam sodium salt],Aqueous solubility,[5]; pH 8.06,2.0 mg/mL
"CCN(C(=O)c1c(O)c2c(Cl)cccc2n(C)c1=O)c1ccccc1 [laquinimod, N-ethyl-N-phenyl-1,2-dihydro-4-hydroxy-5-chloro-1-methyl-2-oxoquinoline-3-carboxamide]",intrinsic solubility,[6],0.007 mg/mL
same,intrinsic solubility,[6]; listed as Free laquinimod,about 0.007 mg/ml
same,pKa,[4],4.2
NCCO.Oc1cc(Cl)ccc1Oc1ccc(Cl)cc1Cl [Monoethanolamine salt of triclosan],solubility,[5]; pH not given,5.84 mg/mL
"CCN(C(=O)c1c(O)c2c(Cl)cccc2n(C)c1=O)c1ccccc1 [Batch 10, laquinimod L-lysine]",Physical stability (physical change),[2]; [9],no sign of physical change
same,Sample appearance,"[2]; +5° C., 5 months",White flowable powder
same,Sample appearance,"[2]; +5° C., 6 months",white powder
same,Sample appearance,"[2]; +5° C., 9 months",White flowable powder
same,Sample appearance,"[2]; +5° C., time 0 month",White flowable powder
same,Physical stability (physical change),[2]; [10],No physical change was observed
same,Aqueous solubility,[1],1000 mg/ml H2O
same,Aqueous solubility,"[1]; depends on preparation method and form, listed as 3.2",1000 mg/mL
"CCN(C(=O)c1c(O)c2c(Cl)cccc2n(C)c1=O)c1ccccc1 [laquinimod sodium, reference compound]",Aqueous solubility,"[6]; existing sodium salt, U.S. Pat. No. 7,589,208",138 mg/mL
same,solubility in water according to the USP,[1]; USP descriptive term,freely soluble to soluble
